Measurements as given in US7662767B2, “Polynucleotide intercalator interceptors and inhibitors” (Materials Evolution and Development USA, Inc., priority 2000, dated 2010).
Values joined by “and” are separate entries in the source; they are usually repeats but may differ in a detail not shown here. Equal values may be shown once.

Assays:
[1] = system: herring sperm dsDNA; assay: Acridine orange with dsDNA, spectrofluorometry λem 530 nm; type: binding; details: AO-DNA, AO [2 μM], DNA [>20 μM], hydrochloride
Description: In another implementation, a spectrofluorometric analysis of the interaction of AO with dsDNA at λex 485 nm and λem 530 nm and 635 nm was also conducted. The interaction of DNA with lower concentrations of AO [2 μM] mimicked the results found at the higher AO concentration of 20 μM for bp:AO ratios of 4:1 and above. The association curve for AO over a series of steadily increasing DNA concentrations ranging from […] of DNA is shown in FIG. 3-8.
The example shown in FIG. 3-8 illustrating the effect of NaCl on the fluorescence of 2 μM AO was determined over a range of bp:AO ratios from 4 to 62.5. The excitation wavelength was 485 nm while emission was monitored at 530 nm. The association constant for 2 μM AO with DNA was determined to be 31,990±310 M^−1 (R^2=0.98) in the absence of NaCl and 31,690±498 M^−1 (R^2=0.96) in the presence of NaCl. Error bars are shown to denote confidence intervals at 95% unless hidden by a data point symbol. The delta fluorescence values were obtained by subtracting the background fluorescence of HEPES buffered AO at 2 μM in the absence of DNA. The association constant for the interaction of AO with DNA was determined to be 31,990±3,190 M^−1.

[2] = AO-CAF complex, spectrofluorometry λex 485 nm / λem 530 nm; type: binding; details: AO [2 μM], CAF [1-20 μM]
Description: Spectrofluorometric analysis was performed at an AO concentration of 2 μM to determine the effect of CAF and a physiological concentration of NaCl on the fluorescence spectra of AO. CAF was added over a series of CAF:AO molecular ratios ranging from 2500:1 to 0.5:1 and the fluorescence intensity determined at λem 530 nm and 635 nm. The fluorescence intensity was again determined following the addition of NaCl to a final concentration 150 mM and pH 7.0 to each test well containing both AO and CAF.
The data in FIG. 3-5A depicts the mean fluorescence values at λem 530 nm of 2 μM AO with CAF in the absence of, and in the presence of, 150 mM NaCl over a range of CAF to AO molecular ratios from 0.5 to 10.0 (1 μM to 20 μM CAF). The example shown in FIG. 3-5A is a plot of fluorescence intensity of AO excited at λex 485 nm and monitored at λem 530 nm versus CAF concentration to show the effect of CAF and NaCl on the fluorescence of AO and the formation of the AO-CAF complex. Solutions of 2 μM AO were analyzed using spectrofluorometric techniques in the presence of various concentrations of CAF with and without addition of NaCl [150 mM]. […] However at the CAF concentration of 5 mM (molecular ratio 2,500:1) there was a significant change in the mean fluorescence intensity with the value going from 1,245±53 for CAF and AO alone to 1,150±34 with the addition of 150 mM NaCl. […]

SMILES | K ± S.D. ([1]; Fluorescence plus NaCl) | K ± S.D. ([1]; Fluorescence plus NaCl, listed as AO-DNA) | K ± S.D. ([1]; Fluorescence, absence of NaCl) | K ± S.D. ([1]; Fluorescence, absence of NaCl, listed as AO-DNA) | K ± S.D. ([2]; Fluorescence plus NaCl 150 mM) [M⁻¹] | K ± S.D. ([2]; Fluorescence, absence of NaCl) [M⁻¹]
CN(C)c1ccc2cc3ccc(N(C)C)cc3nc2c1.Cl [AO, 3,6-bis[dimethylamino]acridine hydrochloride] | 31,690±498 M^−1 and 31,690±4,980 M^−1 | 31,690 ± 4,890 M^−1 | 31,990±310 M^−1 and 31,990±3,190 M^−1 | 31,990 ± 3,190 M^−1 |  | 
Cn1c(=O)c2c(ncn2C)n(C)c1=O [1,3,7-trimethyl xanthine (caffeine), 1,3,7-trimethyl xanthine] |  |  |  |  | 216 ± 20 | 254 ± 27
